“Also recorded” adds a separate entry of the source. Marks after values point to notes of the source that are not given here.
Columns and labels:
[1] = system: Carrageenan-induced mechanical hyperalgesia; experiment: Carrageenan-induced mechanical hyperalgesia, paw pressure (Randall-Sellito) test; type: in vivo, rats; settings: for nociceptive threshold: inflamed paw, 3 h after carrageenan
Description: Carrageenan-induced mechanical hyperalgesia in rats was induced by subplantar injection of a 0.1 ml of a 2% carrageenan suspension and measured 3 h afterwards by the paw pressure (Randall-Sellito) test.
(§1) Drugs and experimental design: SPM 927 and GBP were suspended in 1% methylcellulose and administered i.p. at doses of 10 mg/kg, 20 mg/kg and 40 mg/kg. Pre-treatment time was 30 min before pain measurement. One group of animals served as controls and consequently received an injection of solvent (10 ml/kg) and another group of animals received a reference compound (Carrageenan test: 10 mg/kg indomethacin; Formalin test: 10 mg/kg morphine). Each compound was tested in a separate experiment and each experiment included a control and a reference group. 10 rats per group were used in the Carrageenan test and 6 mice per group in the formalin test.

[2] = system: formalin-induced tonic inflammatory nociceptive behaviour; experiment: Formalin test, rat (weighted behavioural scoring); type: in vivo; settings: for Weighted pain score: score 0-3, ±SEM; for effect on formalin-induced nociceptive behaviour (in words): i.p. just prior to formalin, 5-40 mg/kg, late phase
Description: The formalin test is a chemically-induced tonic pain model in which biphasic changes of nociceptive behaviour are assessed and spinal/supraspinal plasticity of nociception is considered as a molecular basis for neuropathic pain particularly during the second (=late) phase of the test, during which most clinically used drugs against neuropathic pain are active.
The compound was tested for anti-nociceptive properties by use of the weighted behavioural scoring method: Freely moving animals underwent observational assessment of the position of the left hind paw according to a rating score scaled 0-3 before and 10, 20, 30 and 40 min after injection of 0.05 ml of sterile 2.5% formalin under the skin on the dorsal surface of the paw.

[3] = system: neuropathic pain (CHUNG), thermal stimulation; experiment: Neuropathic pain (CHUNG) test, thermal stimulation on lesioned paw; type: in vivo, rat; settings: for PAW-WITHDRAWAL LATENCY, % change: compared with lesioned control; for PAW-WITHDRAWAL LATENCY, mean ± s.e.m.: lesioned paw
From the text: The following Tables 8 and 9 show the effects of harkoseride (hereinafter referred tows SPM 927), carbamazepine, levetiracetam, gabapentin and morphine in the neuropathic pain (CHUNG) test in the rat. Eight (8) rats per group were used.

[4] = system: formalin-induced nociception (paw licking); experiment: Subchronic inflammatory nociception in mice (formalin test); type: in vivo; settings: for nociceptive threshold, early phase: 0-5 min after formalin (acute pain); for nociceptive threshold, late phase: 20-30 min after formalin (subchronic inflammatory pain); for effect on formalin-induced nociceptive response (in words): 10, 20, 40 mg/kg i.p.
Description: Subchronic inflammatory nocicpetion in mice was induced by the subplantar injection of formalin (0.02 ml of a 5% solution). Nociceptive behaviour (paw licking) was measured and quantified between 0 and 5 min (acute pain) and between 20 and 30 min (subchronic inflammatory pain) after formalin.
as §1

[5] = system: chronic constriction injury-induced thermal hyperalgesia; experiment: CCI model: thermal hyperalgesia (radiant heat withdrawal latency); type: in vivo, rat; settings: for Thermal hyperalgesia, withdrawal latency, Post-op + Drug: ligated hind paw, ±SEM
Description: The effectiveness of harkoseride in reducing spontaneous chronic pain, mechanical allodynia, and thermal hyperalgesia was tested using the chronic constriction injury (CCI) model of peripheral neuropathy, one of the best characterised in vivo animal models used to study chronic pain due to peripheral nerve injury. In this model, loose ligatures are placed around the sciatic nerve, which produces axonal swelling and a partial deafferentation manifested as a significant but incomplete loss of axons in the distal portion of the peripheral nerve. One of the prominent behaviours seen following sciatic nerve ligation is the appearance of hind paw guarding, thought to be an indication of an ongoing spontaneous chronic pain. Support for this idea is derived from reports of increased spinal cord neural activity, and increased spontaneous neuronal discharge in spinothalamic tract neurons and in the ventrobasal thalamus in the absence of overt peripheral stimulation. In addition to the appearance of spontaneous pain behaviours, several abnormalities in stimulus evoked pain occur as a result of CCI, including thermal hyperalgesia and mechanical allodynia. The development of these abnormal stimulus-evoked pains has also been reported as occurring in areas outside the territory of the damaged nerve, areas innervated by uninjured nerves.
Behavioural tests for spontaneous pain, thermal hyperalgesia, and mechanical allodynia were conducted to evaluate different components of neuropathic pain. Baseline data for each test was collected prior to any experimental procedure; in addition, all animals were tested for the development of chronic pain behaviours 13-25 days after CCI surgery 1 day prior to the day of vehicle (0.04 ml sterile water/10 g body weight) or drug administration and after vehicle/drug administration. The sequence of the tests was (1) spontaneous pain-related behaviour (2) mechanical allodynia, (3) thermal hyperalgesia in order to minimise the influence of one test on the result of the next. The testing procedures and results are presented separately for each aspect of chronic pain. Either 0 (vehicle, 0.04 ml/10 g body weight), 5, 10, 20 or 40 mg/kg of SPM 927 (n=7-23/group) was administered i.p. 15 minutes before the first behavioural test.
Thermal hyperalgesia was assessed by means of withdrawal latency in response to radiant heat applied to the subplantar surface of the ligated rat hind paw. As compared to the baseline latency (s), a significant decrease in the (postoperative) latency of foot withdrawal in response to the thermal stimulus was interpreted as indicating the presence of thermal hyperalgesia following chronic constriction injury.

## COC[C@@H](NC(C)=O)C(=O)NCc1ccccc1 [SPM 927, (R)-2-Acetamido-N-benzyl-3-methoxypropionamide]
[1]; 10 mg/kg i.p. 30 min before measurement
  nociceptive threshold: 324 ± 15^b
[1]; 20 mg/kg i.p. 30 min before measurement
  nociceptive threshold: 426 ± 24^b
[1]; 40 mg/kg i.p. 30 min before measurement
  nociceptive threshold: 444 ± 13^b
[1]; 10, 20, 40 mg/kg i.p.
  effect on Carrageenan-induced mechanical hyperalgesia (in words): full reversal; also recorded: comparable to that of the reference compound Indomethacin
[2]; 5 mg/kg i.p., 10 min after formalin
  Weighted pain score: 0.31 ± 0.11
[2]; 5 mg/kg i.p., 20 min after formalin
  Weighted pain score: 0.78 ± 0.23
[2]; 5 mg/kg i.p., 30 min after formalin
  Weighted pain score: 1.47 ± 0.20
[2]; 5 mg/kg i.p., 40 min after formalin
  Weighted pain score: 1.46 ± 0.19
[2]; 10 mg/kg i.p., 10 min after formalin
  Weighted pain score: 0.42 ± 0.17
[2]; 10 mg/kg i.p., 20 min after formalin
  Weighted pain score: 0.33 ± 0.16
[2]; 10 mg/kg i.p., 30 min after formalin
  Weighted pain score: 1.02 ± 0.27
[2]; 10 mg/kg i.p., 40 min after formalin
  Weighted pain score: 1.05 ± 0.19
[2]; 20 mg/kg i.p., 10 min after formalin
  Weighted pain score: 0.48 ± 0.18
[2]; 20 mg/kg i.p., 20 min after formalin
  Weighted pain score: 0.57 ± 0.14
[2]; 20 mg/kg i.p., 30 min after formalin
  Weighted pain score: 0.78 ± 0.18
[2]; 20 mg/kg i.p., 40 min after formalin
  Weighted pain score: 1.02 ± 0.24
[2]; 40 mg/kg i.p., 10 min after formalin
  Weighted pain score: 0.12 ± 0.05
[2]; 40 mg/kg i.p., 20 min after formalin
  Weighted pain score: 0.10 ± 0.04
[2]; 40 mg/kg i.p., 30 min after formalin
  Weighted pain score: 0.09 ± 0.06
[2]; 40 mg/kg i.p., 40 min after formalin
  Weighted pain score: 0.12 ± 0.06
[2]; listed as Harkoseride
  effect on formalin-induced nociceptive behaviour (in words): dose dependant reduction
[2]; listed as harkoseride
  effect on formalin-induced nociceptive behaviour (in words): Significant and dose dependent efficacy
[3]; 8 mg/kg i.p. -30 min
  PAW-WITHDRAWAL LATENCY, % change: +60% (b)
  PAW-WITHDRAWAL LATENCY, mean ± s.e.m.: 26.1 ± 5.4 NS (b) sec
[3]; 16 mg/kg i.p. -30 min
  PAW-WITHDRAWAL LATENCY, % change: +3% b)
  PAW-WITHDRAWAL LATENCY, mean ± s.e.m.: 16.8 ± 4.5 NS (b) sec
[3]; 32 mg/kg i.p. -30 min
  PAW-WITHDRAWAL LATENCY, % change: +29% (b)
  PAW-WITHDRAWAL LATENCY, mean ± s.e.m.: 21.1 ± 5.6 NS (b) sec
[4]; 10 mg/kg i.p.
  nociceptive threshold, early phase: 67 ± 15 s
  nociceptive threshold, late phase: 58 ± 16^a s
[4]; 20 mg/kg i.p.
  nociceptive threshold, early phase: 69 ± 8 s
  nociceptive threshold, late phase: 128 ± 16 s
[4]; 40 mg/kg i.p.
  nociceptive threshold, early phase: 8 ± 8^a s
  nociceptive threshold, late phase: 17 ± 17^a s
[4]
  effect on formalin-induced nociceptive response (in words): near complete reversal
[4]; listed as SPM-927
  effect on formalin-induced nociceptive response (in words): dose dependently suppressed
[5]; 5 mg/kg i.p.
  Thermal hyperalgesia, withdrawal latency, Post-op + Drug: 9.2 ± 0.98 s
[5]; 10 mg/kg i.p.
  Thermal hyperalgesia, withdrawal latency, Post-op + Drug: 8.1 ± 0.59 s
[5]; 20 mg/kg i.p.
  Thermal hyperalgesia, withdrawal latency, Post-op + Drug: 9.7 ± 0.96 s
[5]; 40 mg/kg i.p.
  Thermal hyperalgesia, withdrawal latency, Post-op + Drug: 10.2 ± 0.75 s
[5]; 5-40 mg/kg i.p.
  effect on thermal hyperalgesia (in words): dose dependently reduced
[5]; i.p.
  dose at which the maximum effect on thermal hyperalgesia is seen: 20 mg/kg
